Source: PubChem BioAssay AID1963431 (Molecular Pharmacology Branch, DTP, NCI, 2024)

Tested on: Rh18 complex spheroid viability, percent test/control
Assay: Anticancer human tumor Rh18 cell line growth inhibition [Asc];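 further: spheroids exposed to compound for 7 days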;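 on viability, T/C: 100% = DMSO vehicle control wells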
Conditions: for IC50: curve of first compound; for viability, T/C: stronger effect = lower value
In short: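 Tumor cells were grown as multicellular spheroids with stromal HUVEC and mesenchymal stem cells and treated singly or in combination. Concentrations fell in half-log steps from the clinical Cmax, or from 10 microM where none was known.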

## COc1c(OCCCN2CCOCC2)ccc2c3n(c(=NC(=O)c4cnc(N)nc4)nc12)CCN3 + CNC(C)C(=O)NC1CN(S(=O)(=O)c2cccc(S(=O)(=O)N3CCC4CCC(C(=O)NC(c5ccccc5)c5ccccc5)N4C(=O)C(NC(=O)C(C)NC)C3)c2)CCC2CCC(C(=O)NC(c3ccccc3)c3ccccc3)N2C1=O
Second compound 0.01 µM
  IC50: 4.1 nM
Second compound 0.0316 µM
  IC50: < 3.16 nM
Second compound 0.1 µM
  IC50: < 3.16 nM
Second compound 0.316 µM
  IC50: < 3.16 nM
Second compound 1 µM
  IC50: < 3.16 nM
Second compound 0.01 µM, first compound 0.00316 µM
  viability, T/C: 56.5%
Second compound 0.01 µM, first compound 0.01 µM
  viability, T/C: 28.1%
Second compound 0.01 µM, first compound 0.0316 µM
  viability, T/C: 13.5%
Second compound 0.01 µM, first compound 0.1 µM
  viability, T/C: 5.19%
Second compound 0.01 µM, first compound 0.316 µM
  viability, T/C: 1.61%
Second compound 0.01 µM, first compound 1 µM
  viability, T/C: 0.4%
Second compound 0.0316 µM, first compound 0.00316 µM
  viability, T/C: 38.4%
Second compound 0.0316 µM, first compound 0.01 µM
  viability, T/C: 26.1%
Second compound 0.0316 µM, first compound 0.0316 µM
  viability, T/C: 8.33%
Second compound 0.0316 µM, first compound 0.1 µM
  viability, T/C: 2.99%
Second compound 0.0316 µM, first compound 0.316 µM
  viability, T/C: 2.16%
Second compound 0.0316 µM, first compound 1 µM
  viability, T/C: 0.41%
Second compound 0.1 µM, first compound 0.00316 µM
  viability, T/C: 37.3%
Second compound 0.1 µM, first compound 0.01 µM
  viability, T/C: 27.9%
Second compound 0.1 µM, first compound 0.0316 µM
  viability, T/C: 9.81%
Second compound 0.1 µM, first compound 0.1 µM
  viability, T/C: 2.85%
Second compound 0.1 µM, first compound 0.316 µM
  viability, T/C: 1.49%
Second compound 0.1 µM, first compound 1 µM
  viability, T/C: 0.35%
Second compound 0.316 µM, first compound 0.00316 µM
  viability, T/C: 31.4%
Second compound 0.316 µM, first compound 0.01 µM
  viability, T/C: 22.4%
Second compound 0.316 µM, first compound 0.0316 µM
  viability, T/C: 9.6%
Second compound 0.316 µM, first compound 0.1 µM
  viability, T/C: 2.64%
Second compound 0.316 µM, first compound 0.316 µM
  viability, T/C: 1.51%
Second compound 0.316 µM, first compound 1 µM
  viability, T/C: 0.29%
Second compound 1 µM, first compound 0.00316 µM
  viability, T/C: 27.5%
Second compound 1 µM, first compound 0.01 µM
  viability, T/C: 20.3%
Second compound 1 µM, first compound 0.0316 µM
  viability, T/C: 6.75%
Second compound 1 µM, first compound 0.1 µM
  viability, T/C: 3.45%
Second compound 1 µM, first compound 0.316 µM
  viability, T/C: 1.17%
Second compound 1 µM, first compound 1 µM
  viability, T/C: 0.36%

## NC(=O)C(=Cn1cnc(-c2cc(C(F)(F)F)cc(C(F)(F)F)c2)n1)c1cncnc1 + CNC(C)C(=O)NC1CN(S(=O)(=O)c2cccc(S(=O)(=O)N3CCC4CCC(C(=O)NC(c5ccccc5)c5ccccc5)N4C(=O)C(NC(=O)C(C)NC)C3)c2)CCC2CCC(C(=O)NC(c3ccccc3)c3ccccc3)N2C1=O
Second compound 0.01 µM
  IC50: 6.12 nM
Second compound 0.0316 µM
  IC50: 3.91 nM
Second compound 0.1 µM
  IC50: 15 nM
Second compound 0.316 µM
  IC50: 4.49 nM
Second compound 1 µM
  IC50: < 0.949 nM
Second compound 0.01 µM, first compound 0.000949 µM
  viability, T/C: 56.6%
Second compound 0.01 µM, first compound 0.003 µM
  viability, T/C: 53.5%
Second compound 0.01 µM, first compound 0.00949 µM
  viability, T/C: 49.4%
Second compound 0.01 µM, first compound 0.03 µM
  viability, T/C: 39.7%
Second compound 0.01 µM, first compound 0.0949 µM
  viability, T/C: 42%
Second compound 0.01 µM, first compound 0.3 µM
  viability, T/C: 32.8%
Second compound 0.0316 µM, first compound 0.000949 µM
  viability, T/C: 74.8%
Second compound 0.0316 µM, first compound 0.003 µM
  viability, T/C: 51.3%
Second compound 0.0316 µM, first compound 0.00949 µM
  viability, T/C: 40.7%
Second compound 0.0316 µM, first compound 0.03 µM
  viability, T/C: 43.8%
Second compound 0.0316 µM, first compound 0.0949 µM
  viability, T/C: 38.7%
Second compound 0.0316 µM, first compound 0.3 µM
  viability, T/C: 31.4%
Second compound 0.1 µM, first compound 0.000949 µM
  viability, T/C: 50.5%
Second compound 0.1 µM, first compound 0.003 µM
  viability, T/C: 56.4%
Second compound 0.1 µM, first compound 0.00949 µM
  viability, T/C: 49.7%
Second compound 0.1 µM, first compound 0.03 µM
  viability, T/C: 47.6%
Second compound 0.1 µM, first compound 0.0949 µM
  viability, T/C: 33.1%
Second compound 0.1 µM, first compound 0.3 µM
  viability, T/C: 27.7%
Second compound 0.316 µM, first compound 0.000949 µM
  viability, T/C: 52%
Second compound 0.316 µM, first compound 0.003 µM
  viability, T/C: 60.1%
Second compound 0.316 µM, first compound 0.00949 µM
  viability, T/C: 38.7%
Second compound 0.316 µM, first compound 0.03 µM
  viability, T/C: 29.7%
Second compound 0.316 µM, first compound 0.0949 µM
  viability, T/C: 34.3%
Second compound 0.316 µM, first compound 0.3 µM
  viability, T/C: 24.9%
Second compound 1 µM, first compound 0.000949 µM
  viability, T/C: 46%
Second compound 1 µM, first compound 0.003 µM
  viability, T/C: 39.5%
Second compound 1 µM, first compound 0.00949 µM
  viability, T/C: 38%
Second compound 1 µM, first compound 0.03 µM
  viability, T/C: 37.8%
Second compound 1 µM, first compound 0.0949 µM
  viability, T/C: 34.3%
Second compound 1 µM, first compound 0.3 µM
  viability, T/C: 25.6%

## C=CC(=O)N1CCN(c2nc(=O)n(-c3c(C)ccnc3C(C)C)c3nc(-c4c(O)cccc4F)c(F)cc23)C(C)C1 (stereo not given) + CCN1C(C(=O)NC23CCC(C(=O)O)(CC2)CC3)C(c2cccc(Cl)c2F)C2(C(=O)Nc3cc(Cl)ccc32)C12CCCCC2
Second compound 0.03 µM
  IC50: < 31.6 nM
Second compound 0.0949 µM
  IC50: < 31.6 nM
Second compound 0.3 µM
  IC50: < 31.6 nM
Second compound 0.949 µM
  IC50: < 31.6 nM
Second compound 3 µM
  IC50: < 31.6 nM
Second compound 0.03 µM, first compound 0.0316 µM
  viability, T/C: 37.6%
Second compound 0.03 µM, first compound 0.1 µM
  viability, T/C: 36.2%
Second compound 0.03 µM, first compound 0.316 µM
  viability, T/C: 46.5%
Second compound 0.03 µM, first compound 1 µM
  viability, T/C: 46.7%
Second compound 0.03 µM, first compound 3.16 µM
  viability, T/C: 58.2%
Second compound 0.03 µM, first compound 10 µM
  viability, T/C: 60.7%
Second compound 0.0949 µM, first compound 0.0316 µM
  viability, T/C: 23.6%
Second compound 0.0949 µM, first compound 0.1 µM
  viability, T/C: 19.3%
Second compound 0.0949 µM, first compound 0.316 µM
  viability, T/C: 24.4%
Second compound 0.0949 µM, first compound 1 µM
  viability, T/C: 23.5%
Second compound 0.0949 µM, first compound 3.16 µM
  viability, T/C: 30.1%
Second compound 0.0949 µM, first compound 10 µM
  viability, T/C: 25.4%
Second compound 0.3 µM, first compound 0.0316 µM
  viability, T/C: 13.3%
Second compound 0.3 µM, first compound 0.1 µM
  viability, T/C: 13.7%
Second compound 0.3 µM, first compound 0.316 µM
  viability, T/C: 15%
Second compound 0.3 µM, first compound 1 µM
  viability, T/C: 12.9%
Second compound 0.3 µM, first compound 3.16 µM
  viability, T/C: 15.6%
Second compound 0.3 µM, first compound 10 µM
  viability, T/C: 16%
Second compound 0.949 µM, first compound 0.0316 µM
  viability, T/C: 9.37%
Second compound 0.949 µM, first compound 0.1 µM
  viability, T/C: 9.94%
Second compound 0.949 µM, first compound 0.316 µM
  viability, T/C: 11.2%
Second compound 0.949 µM, first compound 1 µM
  viability, T/C: 9.73%
Second compound 0.949 µM, first compound 3.16 µM
  viability, T/C: 14.4%
Second compound 0.949 µM, first compound 10 µM
  viability, T/C: 12.8%
Second compound 3 µM, first compound 0.0316 µM
  viability, T/C: 9.88%
Second compound 3 µM, first compound 0.1 µM
  viability, T/C: 10%
Second compound 3 µM, first compound 0.316 µM
  viability, T/C: 9.57%
Second compound 3 µM, first compound 1 µM
  viability, T/C: 11.9%
Second compound 3 µM, first compound 3.16 µM
  viability, T/C: 13.1%
Second compound 3 µM, first compound 10 µM
  viability, T/C: 14.1%
